Test results reported in PubChem BioAssay AID492986 (Sanford-Burnham Center for Chemical Genomics, 2010).
Activity calls are given as the source filed them.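 Rule for the calls: active = IC50 below 20 µM; inactive = the rest.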

target: Apelin receptor (Homo sapiens) (UniProt P35414); assay: blockers of apelin-13-driven APJ signaling – cell-based, CHO-K1 AGTRL-1, PathHunter luminescence, set 4, SAR follow-up (AID 492986); details: CHO-K1 AGTRL-1 beta-arrestin
Sequence (P35414 whole entry, looked up): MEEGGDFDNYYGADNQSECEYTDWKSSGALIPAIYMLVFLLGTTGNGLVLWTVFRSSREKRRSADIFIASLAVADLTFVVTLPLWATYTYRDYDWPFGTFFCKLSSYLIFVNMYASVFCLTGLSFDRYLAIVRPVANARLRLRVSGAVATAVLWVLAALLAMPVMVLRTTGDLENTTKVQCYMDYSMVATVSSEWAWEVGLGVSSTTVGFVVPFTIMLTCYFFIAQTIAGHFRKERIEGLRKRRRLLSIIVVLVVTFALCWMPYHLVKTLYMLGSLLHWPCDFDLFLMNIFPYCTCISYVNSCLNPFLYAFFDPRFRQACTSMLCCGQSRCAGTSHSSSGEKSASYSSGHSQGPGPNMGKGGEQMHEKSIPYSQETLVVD

IC50 | SMILES
> 79 µM (inactive) | Cc1ccnc(SCc2cc(=O)c(OC(=O)c3cccc(C#N)c3)co2)n1
> 79 µM (inactive) | Cc1ccnc(SCc2cc(=O)c(NC(=O)c3ccccc3)co2)n1
> 79 µM (inactive) | Cc1cc(C)nc(SCc2cc(=O)c(OS(=O)(=O)c3ccccc3)co2)n1

Further lines, the molecule ahead of its results:

SMILES | IC50
O=C(Oc1coc(CCl)cc1=O)c1ccc(Cl)c([N+](=O)[O-])c1 | > 79 µM (inactive)
O=c1cc(CSc2ccc(F)cc2)occ1O | > 79 µM (inactive)
Cc1cc(C)nc(SCc2cc(=O)c(OS(=O)(=O)c3ccc([N+](=O)[O-])cc3)co2)n1 | > 79 µM (inactive)
